Reference: article PMC12860872, “Preclinical evaluation of DOTAGA.Glu.(FAPI)2 and DO3A.Glu.(FAPI)2 as theranostics with human dosimetry extrapolation to lutetium-177 and terbium-161 analogs” (European Journal of Nuclear Medicine and Molecular Imaging, 2025)
Values joined by “and” are separate entries in the source; they are usually repeats but may differ in a detail not shown here. Equal entries are not always repeated.

Legend:
[1] = Blood clearance kinetics in healthy mice; assay type: in vivo, mouse; conditions: i.v., Two-Phase Decay Model
Method: Blood samples were collected from the facial vein at 1, 3, 5, 7, 10, 15, 20, 30, 45, 60, 240, and 1440 min p.i., weighed, and measured for radioactivity using a γ-counter. Results were expressed as % I.A./g of blood and plotted over time. The initial and terminal half-lives were determined using Two-Phase Decay Model. The biological half-lives of selected organs were calculated from the biodistribution data using One-Phase Decay Model (GraphPad Prism 8).

FAP+ CAFs = experiment: Externalization from CAFs; assay type: cell-based, human; conditions: after 24 h at 37 °C
Method: For receptor saturation studies, FAP^+ CAFs were incubated with 0.1 to 10 nM of the radioligands. For internalization studies, approximately 2.5 pmol of the radioligands were added to CAFs followed by incubation for 15, 30, 60, 90, 120, 180 and 240 min for the ^68Ga-labeled or 30, 60, 120, 240 and 360 min for the ^177Lu-labeled radioligands at 37 °C, 5% CO2. For the externalization studies, approximately 2.5 pmol of the ^177Lu-labeled radioligands were added to CAFs followed by incubation for 2 h at 37 °C, 5% CO2. The amount of externalized activity was measured at 0, 10, 20, 30, 60, 120, 240, and 1440 min (Supplemental Data).
After the completion of the 2 hours of incubation, the medium was removed and CAF cells were washed with 1 mL of cold PBS (x2). The cells were then exposed to an acid wash with glycine buffer, as described above, to dissociate membrane-bound radioligand, and the fractions were collected. Fresh medium (1 mL/well) was added to the cells and were incubated at 37 °C. At different time points (10, 20, 30, 60, 120, 240 and 1440 minutes) the external medium was removed (followed by two washing steps with cold PBS). […] The radioactivity of the culture medium, the membrane-bound, the internalized and the externalized fractions were measured in a gamma-counter. The externalized fraction of radioactivity was expressed as the percentage of the total internalized amount.

PC3-mice = experiment: Biodistribution in PC3-mice incl. blocking; assay type: in vivo, mouse; conditions: PC3-mice
Outline: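 Male athymic Balb/C nude mice carrying subcutaneous PC3 tumors (3.5 × 10^6 cells, shoulder) used at 250–300 mm^3. After euthanasia with pentobarbital, dissected organs were weighed and gamma-counted. Uptake given as % I.A./g, mean ± SD, n = 3–4.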

[2] = Blocking 4h (20 nmol unlabeled precursor)

## N#C[C@@H]1CC(F)(F)CN1C(=O)CNC(=O)c1ccnc2ccc(OCCCCNC(=O)CC[C@H](NC(=O)CCC(C(=O)O)N3CCN(CC(=O)[O-])CCN(CC(=O)[O-])CCN(CC(=O)[O-])CC3)C(=O)NCCCCOc3ccc4nccc(C(=O)NCC(=O)N5CC(F)(F)C[C@H]5C#N)c4c3)cc12.[177Lu+3] (some centres unmarked) [[^177Lu]Lu-DOTAGA.Glu.(FAPI)2]
[1]
  Blood half life (initial): 2.8 min
  Blood half life (terminal): 4.692 h and 4.7 h
FAP+ CAFs
  initially internalized activity released: ~ 40%
PC3-mice; 4 h p.i.
  Uptake in Adrenal: 3±0.2 %I.A./g
  Uptake in Blood: 2.1±0.1 %I.A./g
  Uptake in Bone: 4±0.3 %I.A./g
  Uptake in Gallbladder: 2.7±1.6 %I.A./g
  Uptake in Heart: 0.9±0.1 %I.A./g
  Uptake in Intestine: 0.8±0.3 %I.A./g
  Uptake in Kidney: 2.6±0.4 %I.A./g
  Uptake in Liver: 1.7±0.2 %I.A./g
  Uptake in Lung: 1.1±0.1 %I.A./g
  Uptake in Muscle: 1.4±0.3 %I.A./g
  Uptake in Pancreas: 1.9±0.1 %I.A./g
  Uptake in Salivary glands: 6.2±1.2 %I.A./g
  Uptake in Spleen: 0.9±0.1 %I.A./g
  Uptake in Stomach: 0.8±0.1 %I.A./g
  Uptake in Tumor: 16.2±2.5 %I.A./g
PC3-mice; 24 h p.i.
  Uptake in Adrenal: 1.9±0.2 %I.A./g
  Uptake in Blood: 0.9±0.2 %I.A./g
  Uptake in Bone: 2.5±0.1 %I.A./g
  Uptake in Gallbladder: 0.4±0.1 %I.A./g
  Uptake in Heart: 0.6±0.1 %I.A./g
  Uptake in Intestine: 0.4±0.1 %I.A./g
  Uptake in Kidney: 1.3±0.2 %I.A./g
  Uptake in Liver: 2.1±0.2 %I.A./g
  Uptake in Lung: 0.6±0.2 %I.A./g
  Uptake in Muscle: 0.8±0.1 %I.A./g
  Uptake in Pancreas: 0.9±0.7 %I.A./g
  Uptake in Salivary glands: 2.9±0.5 %I.A./g
  Uptake in Spleen: 0.7±0.2 %I.A./g
  Uptake in Stomach: 0.4±0.1 %I.A./g
  Uptake in Tumor: 7.3±0.6 %I.A./g
PC3-mice; 48 h p.i.
  Uptake in Adrenal: 1.3±0.3 %I.A./g
  Uptake in Blood: 0.2±0.03 %I.A./g
  Uptake in Bone: 1.3±0.1 %I.A./g
  Uptake in Gallbladder: 0.1±0.1 %I.A./g
  Uptake in Heart: 0.4±0.04 %I.A./g
  Uptake in Intestine: 0.2±0.01 %I.A./g
  Uptake in Kidney: 1±0.2 %I.A./g
  Uptake in Liver: 1.9±0.5 %I.A./g
  Uptake in Lung: 0.3±0.1 %I.A./g
  Uptake in Muscle: 0.5±0.1 %I.A./g
  Uptake in Pancreas: 0.6±0.1 %I.A./g
  Uptake in Salivary glands: 2.2±0.3 %I.A./g
  Uptake in Spleen: 0.5±0.04 %I.A./g
  Uptake in Stomach: 0.3±0.03 %I.A./g
  Uptake in Tumor: 5.1 ± 0.1 %I.A./g
PC3-mice; 72 h p.i.
  Uptake in Adrenal: 0.9±0.02 %I.A./g
  Uptake in Blood: 0.1±0.03 %I.A./g
  Uptake in Bone: 0.9±0.2 %I.A./g
  Uptake in Gallbladder: 0.1±0.1 %I.A./g
  Uptake in Heart: 0.3±0.1 %I.A./g
  Uptake in Intestine: 0.1±0.02 %I.A./g
  Uptake in Kidney: 0.6±0.1 %I.A./g
  Uptake in Liver: 1.4±0.4 %I.A./g
  Uptake in Lung: 0.1±0.02 %I.A./g
  Uptake in Muscle: 0.2±0.02 %I.A./g
  Uptake in Pancreas: 0.4±0.03 %I.A./g
  Uptake in Salivary glands: 0.7±0.04 %I.A./g
  Uptake in Spleen: 0.3±0.1 %I.A./g
  Uptake in Stomach: 0.1±0.02 %I.A./g
  Uptake in Tumor: 3.2±0.3 %I.A./g
PC3-mice; 96 h p.i.
  Uptake in Adrenal: 0.5±0.01 %I.A./g
  Uptake in Blood: 0.03±0 %I.A./g
  Uptake in Bone: 0.6±0.1 %I.A./g
  Uptake in Gallbladder: 0.1±0.02 %I.A./g
  Uptake in Heart: 0.2±0.02 %I.A./g
  Uptake in Intestine: 0.1±0.02 %I.A./g
  Uptake in Kidney: 0.4±0.04 %I.A./g
  Uptake in Liver: 1.3±0.1 %I.A./g
  Uptake in Lung: 0.1±0.02 %I.A./g
  Uptake in Muscle: 0.1±0.1 %I.A./g
  Uptake in Pancreas: 0.2±0.02 %I.A./g
  Uptake in Salivary glands: 0.7±0.1 %I.A./g
  Uptake in Spleen: 0.3±0.03 %I.A./g
  Uptake in Stomach: 0.1±0.01 %I.A./g
  Uptake in Tumor: 2.2±0.2 %I.A./g
PC3-mice; [2]
  Uptake in Adrenal: 0.8±0.5 %I.A./g
  Uptake in Blood: 0.03±0.01 %I.A./g
  Uptake in Bone: 0.7±0.1 %I.A./g
  Uptake in Gallbladder: 0.2±0.2 %I.A./g
  Uptake in Heart: 0.2±0.04 %I.A./g
  Uptake in Intestine: 0.1±0.02 %I.A./g
  Uptake in Kidney: 0.5±0.1 %I.A./g
  Uptake in Liver: 1.2±0.5 %I.A./g
  Uptake in Lung: 0.1±0.04 %I.A./g
  Uptake in Muscle: 0.2±0.04 %I.A./g
  Uptake in Pancreas: 0.2±0.2 %I.A./g
  Uptake in Salivary glands: 0.6±0.2 %I.A./g
  Uptake in Spleen: 0.3±0.1 %I.A./g
  Uptake in Stomach: 0.09±0.02 %I.A./g
  Uptake in Tumor: 2.9±1.8 %I.A./g
PC3-mice; at 1 h p.i. as printed
  tumor uptake: ~ 15 %I.A./g
PC3-mice; at 24 h vs 4 h p.i.
  drop of tumor uptake (washed-out): ~ 50%
